# Results taken from patent US7423149B2, “Substituted n-aryl amidines as selective D1 dopamine receptor antagonists for the treatment of obesity and CNS disorders” (Schering Corporation, priority 2003, dated 2008).
# Read-outs that look alike come from different tables or passages of the source.
# Legend:
# [1] = target: T1, human Dopamine D1 receptor (Homo sapiens, UniProt P21728); assay: radioligand binding competition assay, displacement of [3H]SCH 23390 from D1 receptor (Ltk-cells membranes);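 on D1 binding and D2:D1 Selectivity: under 5 nM class also requires D2 to D1 selectivity above 500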
# T1 construct: expressed in transfected cells; host or cells: Ltk- cells (mouse fibroblasts), membrane preparation
# T1 sequence (P21728 whole entry): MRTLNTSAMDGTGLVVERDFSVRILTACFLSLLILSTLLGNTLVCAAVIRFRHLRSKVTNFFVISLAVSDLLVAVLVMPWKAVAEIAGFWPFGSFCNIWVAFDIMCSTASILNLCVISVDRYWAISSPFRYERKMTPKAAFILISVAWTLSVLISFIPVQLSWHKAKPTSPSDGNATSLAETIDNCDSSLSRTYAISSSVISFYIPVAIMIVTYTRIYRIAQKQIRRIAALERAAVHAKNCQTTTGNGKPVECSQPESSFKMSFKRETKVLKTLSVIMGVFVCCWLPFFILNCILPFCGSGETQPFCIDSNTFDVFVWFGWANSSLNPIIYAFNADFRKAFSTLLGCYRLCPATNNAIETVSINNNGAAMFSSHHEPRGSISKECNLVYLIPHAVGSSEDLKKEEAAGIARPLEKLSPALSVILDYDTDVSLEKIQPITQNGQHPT
# From the text: (§1) Biological Activity: Compounds from this disclosure have been biologically characterized by their ability to displace a known D1-like selective ligand, [3H]SCH 23390 from the human Dopamine D1 receptor, and a known D2-like selective ligand, [3H] Methylspiperone, from the human Dopamine D2 and D4 receptors.
# (§2) Affinity values (Ki) of compounds at human dopamine receptors were ascertained using radioligand binding competition assays. Cells expressing D1 (Ltk-cells), D2 (long variant, Ltk-cells), D4 (CHO cells) and D5 (GH4C1 cells) receptors were lysed in hypotonic buffer for membrane preparation. Membranes were incubated with various concentrations of test compound and 1 nM [3H] SCH 23390 (D1 and D5) and 0.2 nM [3H] Methylspiperone for (D2 and D4) assays. Non-specific binding was defined as binding in the presence of 10 micromolar of SCH 23390 for D1 and D5 assays and 10 micromolar butaclamol for D2 and D4 assays. Following incubation to equilibrium (1 hour at room temperature), bound radioligand was separated from free by rapid filtration. Bound radioactivity on the dried filters was quantified by liquid scintillation counting.
# (§3) Selectivity is determined by dividing Ki for D2, D4 or D5 receptors by Ki for D1 receptor.
# [2] = target: T2, human Dopamine D2 receptor (Homo sapiens, UniProt P14416); assay: radioligand binding competition assay, displacement of [3H] Methylspiperone from D2 receptor (long variant, Ltk-cells membranes); settings: Ki for D2 divided by Ki for D1
# T2 construct: expressed in transfected cells; host or cells: Ltk- cells (mouse fibroblasts), membrane preparation
# T2 sequence (P14416 whole entry): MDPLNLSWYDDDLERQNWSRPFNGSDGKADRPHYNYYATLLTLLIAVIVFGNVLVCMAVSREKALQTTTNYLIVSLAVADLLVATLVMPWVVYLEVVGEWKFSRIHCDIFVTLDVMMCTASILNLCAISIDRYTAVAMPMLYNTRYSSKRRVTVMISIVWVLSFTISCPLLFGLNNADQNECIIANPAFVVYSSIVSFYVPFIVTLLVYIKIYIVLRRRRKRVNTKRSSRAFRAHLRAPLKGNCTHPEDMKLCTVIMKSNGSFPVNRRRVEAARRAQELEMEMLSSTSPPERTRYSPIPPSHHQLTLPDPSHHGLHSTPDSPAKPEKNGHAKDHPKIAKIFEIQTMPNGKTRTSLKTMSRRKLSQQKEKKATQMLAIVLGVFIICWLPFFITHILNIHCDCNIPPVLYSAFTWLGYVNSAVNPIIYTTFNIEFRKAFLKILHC
# From the text: as §1, §2, §3
# [3] = class combines Ki (D1) and, for A and B, D2:D1 selectivity (Ki D2 / Ki D1), read-out: D1 binding and D2:D1 Selectivity
"Ki [1, 3]",SMILES,other results
50 to 10000 nM,N=C(/C=C/c1ccc(CN2CCCC2)cc1)Nc1ccc(Cl)cc1 [Example 108],–
50 to 10000 nM,N=C(/C=C/c1cc(Cl)cc(Cl)c1)Nc1ccc(Cl)cc1 [Example 109],–
50 to 10000 nM,N=C(/C=C/c1ccc(CNCc2ccccc2)cc1)Nc1ccc(Cl)cc1 [Example 110],–
50 to 10000 nM,N=C(/C=C/c1ccc(-c2ccc(CO)cc2)cc1)Nc1ccc(Cl)cc1 [Example 111],–
50 to 10000 nM,CN1CCN(c2ccc3cc(C(=N)Nc4ccc(Cl)cc4)ccc3c2)CC1 [Example 112],–
50 to 10000 nM,COc1ccccc1C1CCN(c2ccc(/C=C/C(=N)Nc3ccc(Cl)cc3)cc2)CC1 [Example 113],–
50 to 10000 nM,N=C(/C=C/c1ccccc1)Nc1ccc(Cl)cc1 [Example 114],–
50 to 10000 nM,CCCCN(CCCC)c1ccc(/C=C/C(=N)Nc2ccc(Cl)cc2)cc1 [Example 115],–
50 to 10000 nM,N=C(/C=C/c1ccc(CN2CCOCC2)cc1)Nc1ccc(Cl)cc1 [Example 116],–
50 to 10000 nM,COc1ccc(NC(=N)/C=C/c2ccccc2)cc1 [Example 117],–
50 to 10000 nM,N=C(Nc1ccc(Cl)cc1)c1ccc(-c2ccccc2)cc1 [Example 118],–
50 to 10000 nM,COc1ccc2cc(C(=N)Nc3ccc(Cl)cc3F)ccc2c1 [Example 119],–
50 to 10000 nM,N=C(/C=C/c1ccc(-c2cccc(C(=O)O)c2)cc1)Nc1ccc(Cl)cc1 [Example 120],–
50 to 10000 nM,COc1ccc(NC(=N)/C=C/c2ccc(Cc3cccnc3)cc2)cc1 [Example 121],–
50 to 10000 nM,N=C(/C=C/c1ccc(-c2ccc(C(F)(F)F)cc2)cc1)Nc1ccc(Cl)cc1 [Example 122],–
50 to 10000 nM,N=C(/C=C/c1ccc(N2CCNCC2)cc1Cl)Nc1ccc(O)c(Cl)c1 [Example 123],–
50 to 10000 nM,N=C(/C=C/c1ccc(Cc2cccnc2)cc1)Nc1ccc(OC(F)(F)F)cc1 [Example 124],–
50 to 10000 nM,"CO/N=C(/C)c1ccc(-c2ccc(/C=C/C(=N)Nc3ccc(Cl)cc3)cc2)cc1 [Example 125, N-(4-chloro-phenyl)-3-[4′-(1-methoxyimino-ethyl)-biphenyl-4-yl]-acrylamidine]",–
50 to 10000 nM,N=C(/C=C/c1ccc(N2CCCC3CCCCC32)cc1)Nc1ccc(Cl)cc1 (centres unmarked) [Example 126],–
50 to 10000 nM,N=C(Nc1ccc(Cl)cc1)c1ccc2ccccc2n1 [Example 127],–
50 to 10000 nM,N=C(/C=C/c1ccc(Cc2cccnc2)cc1)Nc1ccc(Cl)c(O)c1 [Example 128],–
50 to 10000 nM,COc1ccc(/C=C/C(=N)Nc2ccc(OC)c(OC)c2)cc1 [Example 129],–
50 to 10000 nM,COc1ccc(/C=C/C(=N)Nc2ccc(C)c([N+](=O)[O-])c2)cc1 [Example 130],–
50 to 10000 nM,CC(C)(C)c1ccc(-c2ccc(/C=C/C(=N)Nc3ccc(Cl)cc3)cc2)cc1 [Example 131],–
50 to 10000 nM,N=C(Cc1ccc2ccccc2c1)Nc1ccc(Cl)cc1 [Example 132],–
50 to 10000 nM,COc1ccc(/C=C/C(=N)Nc2ccc(C(C)(C)C)cc2)cc1 [Example 133],–
50 to 10000 nM,N=C(CCc1ccc(Cc2c[nH]cn2)cc1)Nc1ccc(Cl)cc1 [Example 134],–

# More lines, now with the values behind:
SMILES,"Ki [1, 3]",other results
"N=C(/C=C/c1ccc(N2CCNCC2)cc1Cl)Nc1ccc(Cl)cc1 [Example 42, (E)-N-(4-Chlorophenyl)-3-[2-chloro-4(piperazin-1-yl)phenyl]-2-propenimidamide]",< 5 nM,"Ki ([1]; human D1 receptor, [3H] SCH 23390, read-out: Ki (D1) value): 0.9 nM; D2:D1 ratio value [2]: 1258.5"
N=C(/C=C/c1ccc(-n2ccnc2)cc1)Nc1ccc(Cl)cc1 [Example 88],50 to 10000 nM,–
N=C(Nc1ccc(Cl)cc1)c1ccc2[nH]ccc2c1 [Example 89],50 to 10000 nM,–
N=C(/C=C/c1ccc(N2CCCC2)cc1)Nc1ccc(Cl)cc1 [Example 90],50 to 10000 nM,–
COc1ccc(/C=C/C(=N)Nc2cccc(C#N)c2)cc1 [Example 91],50 to 10000 nM,–
N=C(/C=C/c1ccc(O)c(Cl)c1)Nc1ccc(Cl)cc1 [Example 92],50 to 10000 nM,–
N=C(/C=C/c1ccc(N2CCN(c3cccc(Cl)c3)CC2)cc1)Nc1ccc(Cl)cc1 [Example 93],50 to 10000 nM,–
"COc1cccc2ccc(C(=N)Nc3ccc(Cl)cc3)nc12 [Example 94, N-(4-chloro-phenyl)-8-methoxy-quinoline-2-carboxamidine]",50 to 10000 nM,–
Cc1ccc(C)n1-c1ccc(/C=C/C(=N)Nc2ccc(Cl)cc2)cc1 [Example 95],50 to 10000 nM,–
COc1ccc(NC(=N)/C=C/c2ccc(N3CCNCC3)cc2Cl)cc1Cl [Example 96],50 to 10000 nM,–
N=C(Nc1ccc(Cl)cc1)c1ccc2cc(N3CCN(C4CCCCC4)CC3)ccc2c1 [Example 97],50 to 10000 nM,–
N=C(/C=C/c1ccc(N)cc1)Nc1ccc(Cl)cc1 [Example 98],50 to 10000 nM,–
N=C(/C=C/c1ccc(-c2cc(F)cc(F)c2)cc1)Nc1ccc(Cl)cc1 [Example 99],50 to 10000 nM,–
CCn1c2ccccc2c2cc(/C=C/C(=N)Nc3ccc(Cl)cc3)ccc21 [Example 100],50 to 10000 nM,–
CN(C)c1ccc(/C=C/C(=N)Nc2ccc(Cl)cc2)c2ccccc12 [Example 101],50 to 10000 nM,–
N=C(/C=C/c1ccc(Cl)c(Cl)c1)Nc1ccc(Cl)cc1 [Example 102],50 to 10000 nM,–
N=C(/C=C/c1c(Cl)cccc1Cl)Nc1ccc(Cl)cc1 [Example 103],50 to 10000 nM,–
N=C(/C=C/c1ccc(N2CCN(c3ccccc3)CC2)cc1)Nc1ccc(Cl)cc1 [Example 104],50 to 10000 nM,–
N=C(/C=C/c1ccc2c(c1)OCCO2)Nc1ccc(Cl)cc1 [Example 105],50 to 10000 nM,–
"N=C(Nc1ccc(Cl)cc1)c1ccc2cc(O)ccc2c1 [Example 106, N-(4-chloro-phenyl)-6-hydroxy-naphthalene-2-carboxamidine]",50 to 10000 nM,–
COc1ccc(-c2ccc(/C=C/C(=N)Nc3ccc(Cl)cc3)cc2)cc1OC [Example 107],50 to 10000 nM,–
